Data published in US5137892A, “Quinoline, naphthyridine and pyridobenzoxazine derivatives” (Abbott Laboratories, priority 1990, dated 1992).
Converted amounts (≈) assume the structure as drawn.

What was measured:
Type in all cases: cell-based
Acinetobacter SP CMX 699 = assay: In Vitro Antibacterial Activity, agar dilution MIC; conditions: BHI agar dilution, 20-24 hours, unit assumed
Procedure: (§1) The activity of the compounds of the present invention was tested against a wide variety of bacteria using standard assay procedures. Minimum inhibitory concentrations (MICs) were determined by the agar dilution method, described below, using Brain Heart Infusion agar.
(§2) Twelve petri dishes were prepared, each containing successive aqueous 2-fold dilutions of the test compounds mixed with 10 mL of sterilized Brain Heart Infusion (BHI) agar. Each plate was inoculated with 100-fold (or 10-fold, for slow-growing strains such as Micrococcus and Streptococcus) dilutions of up to 32 different microorganisms using a Steers replicator block calibrated to deliver approximately 10^4 colony forming units (CFUs). The inoculated plates were incubated at about 35°-37° C. for approximately 20-24 hours. In addition, a control plate, using BHI agar containing no test compound, was prepared and incubated at the beginning and at the end of each test. Ciprofloxacin was used as the reference antibiotic.
(§3) The MIC was defined as the lowest concentration of test compound yielding no growth (a slight haze or sparsely isolated colonies at the inoculum spot as compared to the growth control contaning no test compound.

[1] = test system: Enterobacter aerogenes ATCC 13048; assay: In Vitro Antibacterial Activity, agar dilution MIC; conditions: E. aerogenes ATCC 13048; BHI agar dilution, 20-24 hours; unit assumed
Procedure: as §1, §2, §3

[2] = test system: Enterococcus faecium ATCC 8043; assay: In Vitro Antibacterial Activity, agar dilution MIC; conditions: E. faecium ATCC 8043; BHI agar dilution, 20-24 hours; unit assumed
Procedure: as §1, §2, §3

Escherichia coli DC-2 = assay: In Vitro Antibacterial Activity, agar dilution MIC; conditions: E. coli DC-2; BHI agar dilution, 20-24 hours; unit assumed
Procedure: as §1, §2, §3

Escherichia coli H560 = assay: In Vitro Antibacterial Activity, agar dilution MIC; conditions: E. coli H560; BHI agar dilution, 20-24 hours; unit assumed
Procedure: as §1, §2, §3

Escherichia coli JUHL = assay: In Vitro Antibacterial Activity, agar dilution MIC; conditions: E. coli JUHL; BHI agar dilution, 20-24 hours; unit assumed
Procedure: as §1, §2, §3

Escherichia coli KNK 437 = assay: In Vitro Antibacterial Activity, agar dilution MIC; conditions: E. coli KNK 437; BHI agar dilution, 20-24 hours; unit assumed
Procedure: as §1, §2, §3

Escherichia coli SS = assay: In Vitro Antibacterial Activity, agar dilution MIC; conditions: E. coli SS; BHI agar dilution, 20-24 hours; unit assumed
Procedure: as §1, §2, §3

[3] = test system: Klebsiella pneumoniae ATCC 8045; assay: In Vitro Antibacterial Activity, agar dilution MIC; conditions: K. pneumoniae ATCC 8045; BHI agar dilution, 20-24 hours; unit assumed
Procedure: as §1, §2, §3

[4] = test system: Micrococcus luteus ATCC 4698; assay: In Vitro Antibacterial Activity, agar dilution MIC; conditions: M. luteus ATCC 4698; BHI agar dilution, 20-24 hours; unit assumed
Procedure: as §1, §2, §3

[5] = test system: Micrococcus luteus ATCC 9341; assay: In Vitro Antibacterial Activity, agar dilution MIC; conditions: M. luteus ATCC 9341; BHI agar dilution, 20-24 hours; unit assumed
Procedure: as §1, §2, §3

[6] = test system: Providencia stuartii CMX 640; assay: In Vitro Antibacterial Activity, agar dilution MIC; conditions: P. stuartii CMX 640; BHI agar dilution, 20-24 hours; unit assumed
Procedure: as §1, §2, §3

[7] = test system: Pseudomonas aeruginosa 2862; assay: In Vitro Antibacterial Activity, agar dilution MIC; conditions: P. aeruginosa 2862; BHI agar dilution, 20-24 hours; unit assumed
Procedure: as §1, §2, §3

[8] = test system: Pseudomonas aeruginosa 5263; assay: In Vitro Antibacterial Activity, agar dilution MIC; conditions: P. aeruginosa 5263; BHI agar dilution, 20-24 hours; unit assumed
Procedure: as §1, §2, §3

[9] = test system: Pseudomonas aeruginosa A5007; assay: In Vitro Antibacterial Activity, agar dilution MIC; conditions: P. aeruginosa A5007; BHI agar dilution, 20-24 hours; unit assumed
Procedure: as §1, §2, §3

[10] = test system: Pseudomonas aeruginosa BMH10; assay: In Vitro Antibacterial Activity, agar dilution MIC; conditions: P. aeruginosa BMH10; BHI agar dilution, 20-24 hours; unit assumed
Procedure: as §1, §2, §3

[11] = test system: Pseudomonas aeruginosa K799/WT; assay: In Vitro Antibacterial Activity, agar dilution MIC; conditions: P. aeruginosa K799/WT; BHI agar dilution, 20-24 hours; unit assumed
Procedure: as §1, §2, §3

Pseudomonas cepacia 2961 = assay: In Vitro Antibacterial Activity, agar dilution MIC; conditions: P. cepacia 2961; BHI agar dilution, 20-24 hours; unit assumed
Procedure: as §1, §2, §3

[12] = test system: Staphylococcus aureus 1775; assay: In Vitro Antibacterial Activity, agar dilution MIC; conditions: S. aureus 1775; BHI agar dilution, 20-24 hours; unit assumed
Procedure: as §1, §2, §3

Staphylococcus aureus 45 = assay: In Vitro Antibacterial Activity, agar dilution MIC; conditions: S. aureus 45; BHI agar dilution, 20-24 hours; unit assumed
Procedure: as §1, §2, §3

[13] = test system: Staphylococcus aureus 642A; assay: In Vitro Antibacterial Activity, agar dilution MIC; conditions: S. aureus 642A; BHI agar dilution, 20-24 hours; unit assumed
Procedure: as §1, §2, §3

[14] = test system: Staphylococcus aureus A-5278; assay: In Vitro Antibacterial Activity, agar dilution MIC; conditions: S. aureus A-5278; BHI agar dilution, 20-24 hours; unit assumed
Procedure: as §1, §2, §3

[15] = test system: Staphylococcus aureus A5177; assay: In Vitro Antibacterial Activity, agar dilution MIC; conditions: S. aureus A5177; BHI agar dilution, 20-24 hours; unit assumed
Procedure: as §1, §2, §3

[16] = test system: Staphylococcus aureus ATCC 6538P; assay: In Vitro Antibacterial Activity, agar dilution MIC; conditions: S. aureus ATCC 6538P; BHI agar dilution, 20-24 hours; unit assumed
Procedure: as §1, §2, §3

[17] = test system: Staphylococcus aureus CMX 553; assay: In Vitro Antibacterial Activity, agar dilution MIC; conditions: S. aureus CMX 553; BHI agar dilution, 20-24 hours; unit assumed
Procedure: as §1, §2, §3

[18] = test system: Staphylococcus aureus NCTC 10649; assay: In Vitro Antibacterial Activity, agar dilution MIC; conditions: S. aureus NCTC 10649; BHI agar dilution, 20-24 hours; unit assumed
Procedure: as §1, §2, §3

[19] = test system: Staphylococcus epidermidis 3519; assay: In Vitro Antibacterial Activity, agar dilution MIC; conditions: S. epidermidis 3519; BHI agar dilution, 20-24 hours; unit assumed
Procedure: as §1, §2, §3

[20] = test system: Streptococcus agalactaciae CMX 508; assay: In Vitro Antibacterial Activity, agar dilution MIC; conditions: S. agalactaciae CMX 508; BHI agar dilution, 20-24 hours; unit assumed
Procedure: as §1, §2, §3

[21] = test system: Streptococcus bovis A5169; assay: In Vitro Antibacterial Activity, agar dilution MIC; conditions: S. bovis A5169; BHI agar dilution, 20-24 hours; unit assumed
Procedure: as §1, §2, §3

[22] = test system: Streptococcus pyogenes 2548 INDUC; assay: In Vitro Antibacterial Activity, agar dilution MIC; conditions: S. pyogenes 2548 INDUC; BHI agar dilution, 20-24 hours; unit assumed
Procedure: as §1, §2, §3

[23] = test system: Streptococcus pyogenes 930 CONST; assay: In Vitro Antibacterial Activity, agar dilution MIC; conditions: S. pyogenes 930 CONST; BHI agar dilution, 20-24 hours; unit assumed
Procedure: as §1, §2, §3

[24] = test system: Streptococcus pyogenes EES61; assay: In Vitro Antibacterial Activity, agar dilution MIC; conditions: S. pyogenes EES61; BHI agar dilution, 20-24 hours; unit assumed
Procedure: as §1, §2, §3

[25] = test system: Pseudomonas aeruginosa K599/61; conditions: P. aeruginosa K599/61; BHI agar dilution, 20-24 hours; unit assumed
Procedure: as §1, §2, §3

SMILES	MIC values (Acinetobacter SP CMX 699) [µg/mL]	MIC values [1] [µg/mL]	MIC values [2] [µg/mL]	MIC values (Escherichia coli DC-2) [µg/mL]	MIC values (Escherichia coli H560) [µg/mL]	MIC values (Escherichia coli JUHL) [µg/mL]	MIC values (Escherichia coli KNK 437) [µg/mL]	MIC values (Escherichia coli SS) [µg/mL]	MIC values [3] [µg/mL]	MIC values [4] [µg/mL]	MIC values [5] [µg/mL]	MIC values [6] [µg/mL]	MIC values [7] [µg/mL]	MIC values [8] [µg/mL]	MIC values [9] [µg/mL]	MIC values [10] [µg/mL]	MIC values [11] [µg/mL]	MIC values (Pseudomonas cepacia 2961) [µg/mL]	MIC values [12] [µg/mL]	MIC values [13] [µg/mL]	also measured
O=C(O)c1cn(C2CC2)c2cc(N3CCNCC3)c(F)cc2c1=O [Cipro, Ciprofloxacin, reference compound]	0.39 (≈ 1.18 µM)	0.05 (≈ 0.151 µM)	0.39 (≈ 1.18 µM)	0.2 (≈ 0.604 µM)	0.01 (≈ 0.0302 µM)	0.02 (≈ 0.0604 µM)	0.2 (≈ 0.604 µM)	0.005 (≈ 0.0151 µM)	0.02 (≈ 0.0604 µM)	0.78 (≈ 2.35 µM)	1.56 (≈ 4.71 µM)	0.78 (≈ 2.35 µM)	25 (≈ 75.4 µM)	12.5 (≈ 37.7 µM)	0.1 (≈ 0.302 µM)	0.05 (≈ 0.151 µM)	0.1 (≈ 0.302 µM)	3.1 (≈ 9.36 µM)	> 100	0.39 (≈ 1.18 µM)	MIC values (Staphylococcus aureus 45): 0.78 µg/mL (≈ 2.35 µM); MIC values [14]: 0.39 µg/mL (≈ 1.18 µM); MIC values [15]: 0.39 µg/mL (≈ 1.18 µM); MIC values [16]: 0.2 µg/mL (≈ 0.604 µM); MIC values [17]: 0.78 µg/mL (≈ 2.35 µM); MIC values [18]: 0.39 µg/mL (≈ 1.18 µM); MIC values [19]: 0.2 µg/mL (≈ 0.604 µM); MIC values [20]: 0.39 µg/mL (≈ 1.18 µM); MIC values [21]: 1.56 µg/mL (≈ 4.71 µM); MIC values [22]: 0.39 µg/mL (≈ 1.18 µM); MIC values [23]: 0.78 µg/mL (≈ 2.35 µM); MIC values [24]: 0.39 µg/mL (≈ 1.18 µM); MIC values [25]: 0.02 µg/mL (≈ 0.0604 µM)
C[C@@H]1COc2c(N3CCC4(CC3)OCCCO4)c(F)cc3c(=O)c(C(=O)O)cn1c23 [Example 330]	3.1 (≈ 7.41 µM)	6.2 (≈ 14.8 µM)	0.78 (≈ 1.86 µM)	12.5 (≈ 29.9 µM)	1.56 (≈ 3.73 µM)	1.56 (≈ 3.73 µM)	12.5 (≈ 29.9 µM)	0.01 (≈ 0.0239 µM)	0.78 (≈ 1.86 µM)	0.78 (≈ 1.86 µM)	1.56 (≈ 3.73 µM)	50 (≈ 119 µM)	> 100	> 100	12.5 (≈ 29.9 µM)	12.5 (≈ 29.9 µM)	12.5 (≈ 29.9 µM)	12.5 (≈ 29.9 µM)	6.2 (≈ 14.8 µM)	0.2 (≈ 0.478 µM)	MIC values [14]: 0.1 µg/mL (≈ 0.239 µM); MIC values [15]: 0.2 µg/mL (≈ 0.478 µM); MIC values [16]: 0.1 µg/mL (≈ 0.239 µM); MIC values [17]: 0.2 µg/mL (≈ 0.478 µM); MIC values [18]: 0.1 µg/mL (≈ 0.239 µM); MIC values [19]: 0.2 µg/mL (≈ 0.478 µM); MIC values [20]: 0.78 µg/mL (≈ 1.86 µM); MIC values [21]: 3.1 µg/mL (≈ 7.41 µM); MIC values [22]: 0.78 µg/mL (≈ 1.86 µM); MIC values [23]: 1.56 µg/mL (≈ 3.73 µM); MIC values [24]: 1.56 µg/mL (≈ 3.73 µM); MIC values [25]: 0.78 µg/mL (≈ 1.86 µM)
